Consider two compounds from patent publication US20070043082A1, “Use of antimuscarinic drugs” (priority 2005, published 2007).

SMILES strings stand for the structures. “Also recorded” adds a separate entry of the source.

One data set concerns status epilepticus. Put plainly: induction of status epilepticus by systemic pilocarpine. It is filed as in vivo, Wistar rats. The note with it: pilocarpine 320 mg/Kg intraperitoneal; average. From the text:
(§1) Biperiden, together with atropine, is a classic […] and is known to block muscarinic receptors. These drugs are known by their abilities in blocking the cholinergic transmission which is otherwise mediated through muscarinic receptors. For our experiments we used Wistar, adult, male, rats which were maintained under controlled conditions of temperature, light/dark cycles and kept in groups of up to 6 animals in polypropilene boxes with free access to tap water and rat chow pellets. Rats were subject to the intraperitoneal administration of pilocarpine in a dose of 320 mg/Kg for the induction of status epilepticus.
As expected, the systemic administration of pilocarpine lead to a sequence of behavioral alterations such as akinesia, body tremor and/or myoclonic jerks of the head and oro-facial stereotyped movements accompanied by profuse salivation. Status epilepticus, a condition of uninterrupt epileptic seizure, developed on average 19±5 min after the injection of pilocarpine. Three hours after the onset of status epilepticus the animals in the experimental group (n=10) were intraperitoneally injected with the first initial dose of biperiden (8 mg/kg). […]

For data set [1], the system named is spontaneous recurrent epileptic seizures (pilocarpine model of epilepsy). Nature of the data set: pilocarpine model of epilepsy in rats: video monitoring of spontaneous epileptic seizures after status epilepticus. It is filed as in vivo, Wistar rats.
Text: The current invention was based on an experimental model of epilepsy in which in rats the induction of a brain lesion is accomplished through the administration of pilocarpine, a cholinergic agonist. According to the original description of this model, approximately 20-30 days after pilocarpine injection in either rats or mice, there is the onset of spontaneous recurrent epileptic seizures (Turski W A, Cavalheiro E A, Schwarz M, Czuczwar S J, Kleinrok Z and Turski L. Limbic seizures produced by pilocarpine in rats: behavioural, electroencephalographic and neuropathological study. Behavioral Brain Research, 9:315-335, 1983; Mello L E A M, Cavalheiro E A, Babb T L, Kupfer W R, Pretorius J K, Tan A M and Finch D M. Circuit mechanisms of seizures in the pilocarpine model of chronic epilepsy: cell loss and mossy fiber sprouting. Epilepsia 34:985-995, 1993). Due to its special features the pilocarpine model is currently one of the 3 most widely used experimental models in the study of epilepsy.
as §1
As expected, the systemic administration of pilocarpine lead to a sequence of behavioral alterations such as akinesia, body tremor and/or myoclonic jerks of the head and oro-facial stereotyped movements accompanied by profuse salivation. Status epilepticus, a condition of uninterrupt epileptic seizure, developed on average 19±5 min after the injection of pilocarpine. Three hours after the onset of status epilepticus the animals in the experimental group (n=10) were intraperitoneally injected with the first initial dose of biperiden (8 mg/kg). This dose represents the concentration needed to provoke memory impairments in rodents, (Roldan G, Bolanos-Badillo E, Gonzales-Sanches H, Quirarte G L and Prado-Alcala R A J W. Selective M1 muscarinic receptor antagonists disrupt memory consolidation of inhibitory avoidance in rats. Neurosci. Lett., 230:93-6, 1997).
For the animals in the control group (n=6), […] after the onset of status epileticus, administration of sterile saline solution (0.9% NaCl), rather than biperiden, was started with a similar protocol.
In the pilocarpine model of epilepsy, a few weeks after the administration of pilocarpine and the induction of status epilepticus, the animals develop spontaneous epileptic seizures which recur for as long as the animal are allowed to live. It is assumed that such epileptic condition adequately mimics some types of epileptic seizures in humans and may closely reflect the sequence of events that take place in post-traumatic epilepsies.
Approximately 15 to 20 days after the induction of status epilepticus, the reported duration of the latent period for the onset of spontaneous seizures, monitoring of the behavioral seizures with a videocamera for approximately 12 hours/week was initiated. Based on our initial hypothesis, that the experimental group (treated with biperiden) would either have a substantial reduction or would show no spontaneous epileptic seizures, and therefore to avoid a false negative result, the sampling rate for video monitoring of these animals was performed for 24 hours/week. Animals were video monitored for approximately 120 days after the induction of status epilepticus. The recorded video tapes were routinely assessed in a 29 inches wide television screen and the seizures observed for each animal were recorded.

The conditions of data set [2]: species and source not stated; cited from earlier work.

Broadly, the half-life is the time needed for the level to fall by half in the phase considered.

As to `CC[C@@H]1C(=O)OC[C@@H]1Cc1cncn1C` [pilocarpine], in the data set on status epilepticus, the “time to development of status epilepticus after injection” value was 19 ± 5 min.
With `OC(CCN1CCCCC1)(c1ccccc1)C1CC2C=CC1C2` (stereo not drawn) [biperiden], in data set [1] (biperiden 8 mg/kg i.p. every 8 hours for 10 days, started 3 h after onset of status epilepticus, n=10, mean ± standard deviation, p < 0.03 vs control (Mann-Whitney)), the “Length of the latent period for the onset of the first recorded spontaneous epileptic seizure, Latency” value is listed as 6.0±1.1 weeks. Further, in data set [1] (biperiden 8 mg/kg i.p. every 8 hours for 10 days, n=10, monitored about 120 days, mean ± standard deviation, p < 0.02 vs control (Mann-Whitney)), the “Frequency of spontaneous epileptic seizures, Spontaneous seizures/h” value stood at 0.0202 ± 0.0047 seizures/h. The “frequency of epileptic seizures in animals that developed seizures (in words)” value in data set [1] (compared to animals not treated with biperiden) is on record as “significantly lesser frequency”. In data set [1] (control (saline) vs experimental (treated with biperiden)), the “mean frequency of spontaneous epileptic seizures of the control group relative to the experimental group” value was found to be 2 times. Further, the “qualitative or quantitative nature of each individual seizure, difference between the two groups” value in data set [1] (experimental (biperiden) vs control) is listed as “no differences”. Also, the “mean latency of the experimental group relative to the control group” value in data set [1] (experimental (biperiden) vs control (saline)) is recorded as “two times greater; also recorded: twice that of the control group”. The “onset of spontaneous recurrent seizures, i.e., epilepsy (in words)” value in data set [1] (prophylactic use after pilocarpine lesion) was “significantly retarded or even suppressed”. The half-life in data set [2] was 24 ± 1.2 h.
